# Test results: PubChem BioAssay (NCI)
# Values joined by “and” are separate entries in the source; they are usually repeats but may differ in a detail not shown here. Equal values may be shown once.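 Dose response: 5 concentrations. Exposure: 48 h. Format: 96-well plates. Endpoint: linear interpolation; highest concentration if not reached. At the GI50, growth is halved. TGI is the concentration that stops growth completely.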
# Columns and labels:
# Assay in all cases: NCI anticancer screen, dose series, 48 h
# M14 melanoma = system: M14 melanoma
# DU-145 prostate = system: DU-145 prostate
# MDA-MB-435 = system: MDA-MB-435
# EKVX NSCLC = system: EKVX NSCLC
# HT29 colon = system: HT29 colon
# DLD-1 colon = system: DLD-1 colon
# SNB-75 CNS = system: SNB-75 CNS
# LOX IMVI melanoma = system: LOX IMVI melanoma
# SR leukemia = system: SR leukemia
# COLO 205 colon = system: COLO 205 colon
# HOP-18 NSCLC = system: HOP-18 NSCLC
# OVCAR-4 ovarian = system: OVCAR-4 ovarian
# IGROV1 ovarian = system: IGROV1 ovarian
# CAKI-1 renal = system: CAKI-1 renal
# NCI-H522 lung = system: NCI-H522 lung
# SNB-19 CNS = system: SNB-19 CNS
# SF-268 CNS = system: SF-268 CNS
# SN12C renal = system: SN12C renal
# OVCAR-8 ovarian = system: OVCAR-8 ovarian
# SK-MEL-2 melanoma = system: SK-MEL-2 melanoma
# HOP-92 NSCLC = system: HOP-92 NSCLC
# SW-620 colon = system: SW-620 colon
# DMS 273 small cell lung = system: DMS 273 small cell lung
# HCT-116 colon = system: HCT-116 colon
# SF-539 CNS = system: SF-539 CNS
# MCF7 breast = system: MCF7 breast
# MDA-N = system: MDA-N
# ACHN renal = system: ACHN renal
# LXFL 529 NSCLC = system: LXFL 529 NSCLC
# NCI-H460 lung = system: NCI-H460 lung
# RPMI-8226 leukemia = system: RPMI-8226 leukemia
# A498 renal = system: A498 renal
# NCI/ADR-RES ovarian = system: NCI/ADR-RES ovarian
# MDA-MB-231 breast = system: MDA-MB-231 breast
# SK-MEL-5 melanoma = system: SK-MEL-5 melanoma
# UACC-62 melanoma = system: UACC-62 melanoma
# HOP-62 NSCLC = system: HOP-62 NSCLC
# SF-295 CNS = system: SF-295 CNS
# BT-549 breast = system: BT-549 breast
# SK-OV-3 ovarian = system: SK-OV-3 ovarian
# T-47D breast = system: T-47D breast
# TK-10 renal = system: TK-10 renal
# KM12 colon = system: KM12 colon
# 786-0 renal = system: 786-0 renal
# RXF 393 renal = system: RXF 393 renal
# UO-31 renal = system: UO-31 renal
# HCC-2998 colon = system: HCC-2998 colon
# MALME-3M melanoma = system: MALME-3M melanoma
# OVCAR-5 ovarian = system: OVCAR-5 ovarian
# SK-MEL-28 melanoma = system: SK-MEL-28 melanoma
# K-562 leukemia = system: K-562 leukemia
# U251 CNS = system: U251 CNS
# HS 578T breast = system: HS 578T breast
# UACC-257 melanoma = system: UACC-257 melanoma
# HCT-15 colon = system: HCT-15 colon
# NCI-H226 lung = system: NCI-H226 lung
# NCI-H23 lung = system: NCI-H23 lung
# A549 NSCLC = system: A549 NSCLC
compound,measurement,setting,value
Oc1cccc2cccnc12,GI50,M14 melanoma,3.01 µM and 24.2 µM and 2.99 µM
same,TGI,M14 melanoma,35.4 µM and > 100 µM
same,GI50,DU-145 prostate,20.9 µM and 68.8 µM and 18.2 µM
same,TGI,DU-145 prostate,> 100 µM
same,GI50,MDA-MB-435,13.3 µM and 21.5 µM and 5.94 µM
same,TGI,MDA-MB-435,> 100 µM
same,TGI,EKVX NSCLC,> 100 µM
same,GI50,HT29 colon,3.53 µM and 13.8 µM and 4.64 µM
same,TGI,HT29 colon,> 100 µM
same,TGI,DLD-1 colon,> 100 µM
same,GI50,SNB-75 CNS,44 µM and 18.4 µM
same,TGI,SNB-75 CNS,> 100 µM
same,GI50,LOX IMVI melanoma,1650 nM and 709 nM and 2290 nM
same,TGI,LOX IMVI melanoma,14.8 µM and > 100 µM
same,TGI,SR leukemia,23.7 µM and 3.71 µM
same,GI50,COLO 205 colon,5.58 µM and 19.1 µM and 16.9 µM
same,TGI,COLO 205 colon,40.3 µM and 67.7 µM and > 100 µM
same,TGI,HOP-18 NSCLC,> 100 µM
same,GI50,OVCAR-4 ovarian,6.13 µM and 19.9 µM and 3.37 µM
same,TGI,OVCAR-4 ovarian,> 87.6 µM and 83.3 µM and > 100 µM
same,TGI,IGROV1 ovarian,28.9 µM and 24.4 µM and > 100 µM
same,TGI,CAKI-1 renal,> 100 µM
same,GI50,NCI-H522 lung,220 nM and 487 nM and 1920 nM
same,GI50,SNB-19 CNS,23.6 µM and 96.4 µM and 38.9 µM
same,TGI,SNB-19 CNS,> 100 µM
same,GI50,SF-268 CNS,4.04 µM and 32.7 µM and 3.29 µM
same,TGI,SF-268 CNS,> 100 µM
same,GI50,SN12C renal,5.56 µM and 29.8 µM and 4.23 µM
same,TGI,SN12C renal,> 100 µM
same,GI50,OVCAR-8 ovarian,3.39 µM and 14.6 µM and 2.67 µM
same,TGI,OVCAR-8 ovarian,> 100 µM
same,GI50,SK-MEL-2 melanoma,> 20.7 µM and 8.34 µM
same,TGI,SK-MEL-2 melanoma,> 74.5 µM
same,TGI,HOP-92 NSCLC,> 100 µM
same,GI50,SW-620 colon,904 nM and 3900 nM and 2360 nM
same,TGI,SW-620 colon,> 100 µM
same,TGI,DMS 273 small cell lung,7.98 µM
same,GI50,HCT-116 colon,1060 nM and 3420 nM and 1460 nM
same,TGI,HCT-116 colon,23.1 µM and > 100 µM
same,GI50,SF-539 CNS,4.56 µM and 26.9 µM and 4.11 µM
same,TGI,SF-539 CNS,54.1 µM and 81.1 µM and > 100 µM
same,GI50,MCF7 breast,1720 nM and 3310 nM
same,TGI,MCF7 breast,5.05 µM and > 31.6 µM
same,TGI,MDA-N,> 100 µM
same,GI50,ACHN renal,5.98 µM and 23.1 µM and 6 µM
same,TGI,ACHN renal,> 100 µM
same,TGI,LXFL 529 NSCLC,> 100 µM
same,GI50,NCI-H460 lung,1.6 µM and 3.32 µM and 3.85 µM
same,TGI,NCI-H460 lung,23.4 µM and > 100 µM and 21.9 µM
same,GI50,RPMI-8226 leukemia,200 nM
same,TGI,RPMI-8226 leukemia,1070 nM and 4310 nM
same,TGI,A498 renal,27.7 µM and 56.4 µM and > 100 µM
same,TGI,NCI/ADR-RES ovarian,35.4 µM and > 100 µM and > 32 µM
same,TGI,MDA-MB-231 breast,> 28.7 µM and 84 µM and 33.1 µM
same,TGI,SK-MEL-5 melanoma,36.7 µM and 45.2 µM and > 71.7 µM
same,TGI,UACC-62 melanoma,26.8 µM and > 100 µM
same,GI50,HOP-62 NSCLC,4.47 µM and 5.39 µM and 13.5 µM
same,TGI,HOP-62 NSCLC,> 100 µM
same,TGI,SF-295 CNS,> 100 µM
same,TGI,BT-549 breast,> 100 µM
same,GI50,SK-OV-3 ovarian,42.2 µM and 46.1 µM and > 100 µM
same,TGI,SK-OV-3 ovarian,> 100 µM
same,TGI,T-47D breast,> 100 µM
same,GI50,TK-10 renal,51.5 µM and 8.42 µM and 47.7 µM
same,TGI,TK-10 renal,> 100 µM
same,GI50,KM12 colon,3.04 µM and 14 µM and 5.1 µM
same,TGI,KM12 colon,> 100 µM
same,TGI,786-0 renal,> 100 µM
same,GI50,RXF 393 renal,13.4 µM and 69.6 µM and 14.6 µM
same,TGI,RXF 393 renal,> 100 µM
same,TGI,UO-31 renal,> 100 µM
same,TGI,HCC-2998 colon,28 µM and > 100 µM and 47.9 µM
same,TGI,MALME-3M melanoma,> 100 µM
same,TGI,OVCAR-5 ovarian,21.1 µM and > 100 µM
same,GI50,SK-MEL-28 melanoma,16.9 µM and > 100 µM and > 55.5 µM
same,TGI,SK-MEL-28 melanoma,> 100 µM
same,TGI,K-562 leukemia,21.7 µM and > 100 µM and > 23.3 µM
same,GI50,U251 CNS,3.32 µM and 23.8 µM and 5.14 µM
same,TGI,U251 CNS,> 100 µM
same,GI50,HS 578T breast,> 100 µM
same,TGI,HS 578T breast,> 100 µM
same,TGI,UACC-257 melanoma,27.3 µM and > 100 µM and > 27.8 µM
same,GI50,HCT-15 colon,2040 nM and 5510 nM and 2520 nM
same,TGI,HCT-15 colon,> 100 µM
same,GI50,NCI-H226 lung,8.82 µM and 44.4 µM and 28.6 µM
same,TGI,NCI-H226 lung,37.4 µM and > 100 µM and > 84 µM
same,GI50,NCI-H23 lung,2.49 µM and 13.4 µM and 3.93 µM
same,TGI,NCI-H23 lung,18.9 µM and > 100 µM
same,GI50,A549 NSCLC,6.17 µM and 16.4 µM and 5.97 µM
same,TGI,A549 NSCLC,> 100 µM
